Results on one compound are retold here after patent US6083951A, “Aryl-substituted pyrimidine sulphonamide compounds as endothelin antagonists” (Zeneca Limited, priority 1994, dated 2000).

For assay [1], the system named is Human ETA or ETB receptors. Briefly: Test A: inhibition of [125I]-Endothelin-1 binding to MEL cell membranes expressing recombinant receptor. The note with it: [125I]-Endothelin-1 30 pM, receptor subtype (ETA or ETB) not stated. The source says:
The endothelin receptor antagonist activity of compounds of formula I may be assessed in vitro by their ability to inhibit binding of [^125 I]-Endothelin-1 to its receptors. Human ETA or ETB receptors (sub-types of the endothelin receptor) were expressed in Mouse Erythroleukemic Cells (MEL cells) by using standard molecular techniques (for example, as described by Sambrook J., Fritsch E. F. & Maniatis T. (1989) Molecular Cloning: A Laboratory Manual, 2nd Edition, Cold Spring Harbor Press, U.S.A.). cDNA sequences encoding the human ETA and ETB receptor (Hosoda K. et al (1991), FEBS Lett., 287, 23-26 and Sakamoto A. et al, (1991), Biochem. Biophys Res. Comm., 178, 656-663) are subcloned into pBluescript vector followed by insertion into the MEL cell expression vector pEV as described by Needham et al (1992), Nuc. Acids Res., 20, 997-1003. […]
[^125 I]-Endothelin-1 binding to MEL cell membranes was measured in incubation buffer containing 50 mM Tris HCl, 1 mM CaCl2, 0.05% polyoxyethylenesorbitan monolaurate, 0.1% Bovine Serum Albumin (BSA), 0.02% sodium azide pH 7.4 at 30° C. after 180 minutes incubation. […] Nonspecific binding was measured in the presence of 100 nM unlabelled Endothelin-1. […] The filter discs were punched out and counted in a gamma counter. Compounds are tested in triplicate over a range of concentrations and IC50 (or pIC50) values calculated.

Assay [2] has as its system guinea-pig isolated taenia coli. Briefly: Test B: inhibition of the relaxant response to endothelin-1 in isolated tissue. In kind it is cell-based. The note with it: antagonism of endothelin-1 relaxation, pA2 from concentration ratio. As to the method: The endothelin receptor antagonist activity of compounds of formula I may be assessed in vitro in isolated tissues by their ability to inhibit the relaxant response to endothelin-1 in the guinea-pig isolated taenia coli. Guinea pigs of either sex and weight >250 g are killed by cervical dislocation and the caecum removed and placed in cold oxygenated Krebs solution. Strips of Taenia coli are dissected out and approximately 4 cm lengths set up for isotonic recording in a 20 ml organ bath containing oxygenated Krebs solution at 32° C. After a 90-120 minute equilibration period to allow the tissue to spontaneously develop an increased tone, a cumulative concentration-response curve (relaxation) is constructed to endothelin-1 (0.3-10 nM). The tissue is then washed for a period of at least 90 minutes before construction of a second concentration-response curve to endothelin-1 in the presence of the test compound. The test compound is added to the organ bath (at an initial concentration of 20 μM) at least 30 minutes before constructing the second concentration-response curve to endothelin-1. The endothelin-1 concentration ratio for each experiment is determined by comparing the most parallel portions of the control and drug treated concentration-response curves. From this a pA2 is calculated: pA2 =-log[molar drug concentration]+log[concentration ratio-1].

As for `CN(C)c1cccc2c(S(=O)(=O)Nc3ccc(Cl)nn3)cccc12` [Example 1, 5-(dimethylamino)-N-(6-chloro-3-pyridazinyl)-1-naphthalenesulphonamide], the “pIC50 in test A” value in assay [1] is listed as 6.7. Also, the “pA2 in test B” value in assay [2] worked out at 6.8.
